Laboratory results reported in patent publication US5760036A, “Aminediol protease inhibitors” (E. R. Squibb & Sons, Inc., priority 1995, dated 1998).
Structures can show the parent of a compound that is named as a salt. Where two headings read alike, the source gives them in different places.

How the values were obtained:
[1] = tested on: RF strain of HIV (CEM-SS cells); assay: Cell Culture Anti-HIV Activity (cell viability, formazan); type: cell-based; conditions: Human immunodeficiency virus 1, CEM-SS, 144 h
In short: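 Half-log compound dilutions added to CEM-SS cells (5000/well) carrying HIV RF (MOI 0.04), 6 days, 37° C. Cell protection measured as formazan from tetrazolium, A450. IC50: drug level restoring infected-cell formazan to 50% of the uninfected untreated control.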

HIV protease = biological target: T1, HIV protease (Human immunodeficiency virus type 1 group M subtype B, UniProt P04585); assay: HIV Protease Assay; type: biochemical
T1 construct: and purified protease
In short: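 At a single final concentration of 10 μM (4% DMSO), inhibitors were added to a 30-minute, 37° C reaction of purified enzyme with 450 μM H2N-Val-Ser-Gln-Asn-(β-naphthyl-alanine)-Pro-Val-Ile-OH at pH 5.5 (sodium acetate, BSA). Hydrolysis was quantified by reverse-phase HPLC with 220 nm detection after acid quench.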

[2] = CEM-SS cells, RF strain of HIV, multiplicity of infection 0.04, 6 days at 37° C., 450 nm, read-out: HIV (CEM Cells) IC50
[3] = pH 5.5, 10 μM inhibitor, 4% DMSO, 450 μM substrate, pH 5.5, 30 minutes at 37° C., RP-HPLC, read-out: HIV Protease % Inhibition at 10 μM

| SMILES | inhibition at 10 µM (HIV protease; [3]) | inhibition at 10 µM (HIV protease; pH 5.5, read-out: HIV Protease % Inhibition at 10 μM) | IC50 [1, 2] | IC50 ([1]; read-out: HIV (CEM Cells) IC50 (μM)) | inhibition at 10 µM (HIV protease; pH 5.5, read-out: HIV Protease % Inhibition at 10 μM, 10 μM inhibitor, 4% DMSO, 450 μM substrate, pH 5.5, 30 minutes at 37° C., RP-HPLC) |
| --- | --- | --- | --- | --- | --- |
| COCCCCOc1ccc(C[C@H](NC(=O)OC(C)(C)C)[C@H](O)CNC[C@@H](O)[C@H](Cc2ccccc2)NC(=O)OC(C)(C)C)cc1 [Compound 300, [1S-[1R*,2S*(2S*,3R*)]]-[3-[[3-[[(1,1-Dimethylethoxy)-carbonyl]amino]-2-hydroxy-4-[4-(4-methoxybutoxy)phenyl]butyl]amino]-2-hydroxy-1-(phenylmethyl)propyl]carbamic acid, 1,1-dimethylethyl ester] | 99% | – | 0.03 µM | – | – |
| CC(C)(C)OC(=O)N[C@@H](Cc1ccccc1)[C@H](O)CNC[C@@H](O)[C@H](Cc1ccccc1)NC(=O)OC(C)(C)CCCOCc1ccccc1 [Compound 210, [1S-(1R*,2S*)]-[Iminobis[2-hydroxy-1-(phenylmethyl)-3,1-propanediyl]]biscarbamic acid, 1,1-dimethylethyl-4-(phenylmethoxy)-1,1-dimethylbutyl ester] | 81% | – | > 5 µM | – | – |
| CC(C)(C)OC(=O)N[C@@H](Cc1ccccc1)[C@@H](O)CNC[C@H](O)[C@H](Cc1ccccc1)NC(=O)OC(C)(C)C [Compound 3, [1S-[1R*,2R*(2R*,3R*)]]-[3-[[3-[[(1,1-Dimethylethoxy)carbonyl]amino]-2-hydroxy-4-phenylbutyl]amino]-2-hydroxy-1-(phenylmethyl)propyl]carbamic acid, 1,1-dimethylethyl ester] | 0% | – | > 3.2 µM | – | – |
| COC(C(=O)N[C@@H](Cc1ccccc1)[C@H](O)CNC[C@@H](O)[C@H](Cc1ccccc1)NC(=O)OC(C)(C)C)C(C)(C)C (stereo partly drawn) [Compound 325, [1S-[1R*,2S*(2S*,3R*)]]-[2-Hydroxy-3-[[2-hydroxy-3-[(2-methoxy-3,3-dimethyl-1-oxobutyl)amino]-4-phenylbutyl]amino]-1-(phenylmethyl)-propyl]carbamic acid, 1,1-dimethylethyl ester] | 90% | – | 1.54 µM | – | – |
| CC(C)(C)OC(=O)N1Cc2ccccc2CC1C(O)CNCC(O)C1Cc2ccccc2CN1C(=O)OC(C)(C)C (stereo not drawn) [Compound 11, [R-(R*,R*)]-3,3'[Iminobis(1-hydroxy-2,1-ethanediyl)]-bis[2(1H)-isoquinolinecarboxylic acid], bis(1,1-dimethylethyl) ester] | 0% | – | > 6 µM | – | – |
| COC(=O)N[C@H](C(=O)N[C@@H](Cc1ccccc1)[C@H](O)CNC[C@@H](O)[C@H](Cc1ccccc1)NC(=O)OC(C)(C)C)C(C)(C)C (relative stereo) [Compound 246, [1R*,2S*(2S*,3R*)]-N-[3-[[3-[[(1,1-Dimethylethoxy)carbonyl]amino]-2-hydroxy-4-phenylbutyl]amino]-2-hydroxy-1-(phenylmethyl)propyl]-N^2-(2-methoxycarbonyl)-3-methyl-L-valinamide] | 100% | – | 0.04 µM | – | – |
| CC(C)(C)OC(=O)N[C@@H](Cc1ccccc1)[C@H](O)CNC[C@@H](O)[C@H](Cc1ccc2ncccc2c1)NC(=O)OC(C)(C)C [Compound 31, [1S-[1R*,2S*(2S*,3R*)]]-[3-[[3-[[(1,1-Dimethylethoxy)-carbonyl]amino]-2-hydroxy-4-phenylbutyl]amino-2-hydroxy-1-(6-quinolinylmethyl)propyl]carbamic acid, 1,1-dimethylethyl ester] | 100% | – | 0.03 µM | – | – |
| CC(C)(C)OC(=O)N[C@@H](Cc1ccccc1)[C@H](O)CN(C[C@@H](O)[C@H](Cc1ccccc1)NC(=O)OC(C)(C)CO)C(=O)OCC[Si](C)(C)C [Compound 164, [R-(R*,S*)]-[[[(Trimethylsilyl)-ethoxy]carbonyl]iminobis[2-hydroxy-1-(phenylmethyl)-3,1-propanediyl]1biscarbamic acid, 1,1-di-methylethyl 2-hydroxy-1,1-dimethylethyl ester] | – | – | – | 0.04 µM | 99% |
| CC(C)(C)OC(=O)N[C@@H](Cc1ccccc1)[C@H](O)CNC[C@@H](O)[C@H](Cc1ccc(OCC(=O)N2CCCCC2)cc1)NC(=O)OC(C)(C)C [Compound 332] | – | 100% | 0.07 µM | – | – |
| COC(=O)N[C@H](C(=O)N[C@@H](Cc1ccccc1)[C@H](O)CNC[C@@H](O)[C@H](Cc1ccc(OCCc2ccccn2)cc1)NC(=O)OC(C)(C)C)C(C)(C)C (relative stereo) [Compound 327, [1R*,2S*(2S*,3R*)-N-[3-[[3-[[(1,1-Dimethylethoxy)carbonyl]amino]-2-hydroxy-4-[4-[2-(2-pyridinyl)ethoxyl]phenyl]butyl]amino]-2-hydroxy-1-(phenylmethyl)propyl]-N^2-(methoxycarbonyl)-3-methyl-L-valinamide] | 99% | – | 0.05 µM | – | – |
| CC(C)(C)OC(=O)N[C@@H](Cc1ccccc1)[C@H](O)CNC[C@@H](O)[C@H](Cc1ccccc1)NC(=O)OC(C)(C)C [Compound 2, [1S-[1R*,2S*(2S*,3R*)]]-[3-[[3-[[(1,1-Dimethylethoxy)carbonyl]amino]-2-hydroxy-4-phenylbutyl]amino]-2-hydroxy-1-(phenylmethyl)propyl]carbamic acid, 1,1-dimethylethyl ester] | 100% | – | 0.09 µM | – | – |
| CC(C)(C)OC(=O)N[C@@H](Cc1ccccc1)[C@H](O)CNC[C@@H](O)[C@H](Cc1ccccc1)NC(=O)c1ccc2ccccc2c1 [Compound 64, [1S-[1R*,2S*(2S*,3R*)]]-[2-Hydroxy-3-[[2-hydrox-3-[(2-naphthalenyl-carbonyl)amino]-4-phenylbutyl]amino]-1-(phenylmethyl)propyl]carbamic acid, 1,1-dimethylethyl ester] | 72% | – | > 5 µM | – | – |

Continued, in another order:

| inhibition at 10 µM (HIV protease; [3]) | inhibition at 10 µM (HIV protease; pH 5.5, read-out: HIV Protease % Inhibition at 10 μM) | SMILES | IC50 [1, 2] | IC50 ([1]; read-out: HIV (CEM Cells) IC50 (μM)) | inhibition at 10 µM (HIV protease; pH 5.5, read-out: HIV Protease % Inhibition at 10 μM, 10 μM inhibitor, 4% DMSO, 450 μM substrate, pH 5.5, 30 minutes at 37° C., RP-HPLC) |
| --- | --- | --- | --- | --- | --- |
| 99% | – | CC(C)(C)OC(=O)N[C@@H](Cc1ccccc1)[C@H](O)CNC[C@@H](O)[C@H](Cc1ccccc1)NC(=O)[C@@H](NC(=O)OCCOc1ccccc1)C(C)(C)C [Compound 326, [S-[1R*,2S*(2S*,3R*)]]-[2,2-Dimethyl-1-[[[3-[[3-[[(1,1-dimethylethoxy)carbonyl]amino]-2-hydroxy-4-phenylbutyl]amino]-2-hydroxy-1-(phenylmethyl)propyl]amino]carbonyl]propyl]carbamic acid, (2-(phenyloxy)ethyl ester] | 0.03 µM | – | – |
| 96% | – | CC(C)[C@H](NC(=O)[C@@H](C)O)C(=O)N[C@@H](Cc1ccccc1)[C@H](O)CNC[C@@H](O)[C@H](Cc1ccccc1)NC(=O)OC(C)(C)C [Compound 221, [1S-[[1R*,2S*(2S*,3R*)],N^2-(S*) ]]-N-[3-[[3-[[(1,1-Dimethylethoxy)carbonyl]amino]-2-hydroxy-4-phenylbutyl]amino]-2-hydroxy-1-(phenylmethyl)propyl]-N^2-(2-hydroxy-1-oxopropyl)-L-valinamide] | 1.1 µM | – | – |
| 100% | – | CC(C)[C@H](NC(=O)CCc1c[nH]c2ccccc12)C(=O)N[C@@H](Cc1ccccc1)[C@H](O)CNC[C@@H](O)[C@H](Cc1ccccc1)NC(=O)OC(C)(C)C (relative stereo) [Compound 260, [1R*,2S*(2S*,3R*)]-N-[3-[[3-[[(1,1-Dimethylethoxy)carbonyl]amino]-2-hydroxy-4-phenylbutyl]amino]-2-hydroxy-1-(phenylmethyl)propyl]-N^2-[3-(1H-indol-3-yl)-1-oxo-propyl]-L-valinamide] | 0.29 µM | – | – |
| 99% | – | CC(C)[C@H](NC(=O)[C@@H](N)Cc1ccccc1)C(=O)N[C@@H](Cc1ccccc1)[C@H](O)CNC[C@@H](O)[C@H](Cc1ccccc1)NC(=O)OC(C)(C)C [Compound 84, [S-[1R*,2S*(2S*,3R*)]-N-[3-[[3-[[(1,1-Dimethylethoxy)carbonyl]amino]-2-hydroxy-4-phenylbutyl]amino]-2-hydroxy-1-(phenylmethyl)propyl)-L-valyl]-L-phenylalanamide, fumarate (2:3) salt] | 1.2 µM | – | – |
| 99% | – | CC(C)[C@H](NC(=O)OCc1nc2ccccc2o1)C(=O)N[C@@H](Cc1ccccc1)[C@H](O)CNC[C@@H](O)[C@H](Cc1ccccc1)NC(=O)OC(C)(C)C (relative stereo) [Compound 171, S-[1R*,2S*(2S*,3R*)]-N^2-[[(2-Benzo-xazolyl)methoxy]carbonyl]-N-[3-[[3-[[(1,1-dimethylethoxy)carbonyl]amino]-2-hydroxy-4-phenylbutyl]amino]-2-hydroxy-1-(phenylmethyl)-propyl]-L-valinamide] | 0.05 µM | – | – |
| 73% | – | CC(C)[C@H](NC(=O)OCc1ccccc1)C(=O)N[C@@H](Cc1ccccc1)[C@H](O)CNC[C@@H](O)[C@H](Cc1ccccc1)NC(=O)[C@H](CC(N)=O)NC(=O)OC(C)(C)C [Compound 121, [S-[1R*,2S*(2S*.3R*)]]-N^2-[(1-Dimethylethoxy)carbonyl]-N-[2-hydroxy-3-[[2-hydroxy-4-phenyl-3-[[N-[(phenylmethoxy)carbonyl]-L-valyl]amino]butyl]amino]-1-(phenylmethyl)-propyl]-L-asparaginamide] | > 0.3 µM | – | – |
